The text below walks through data of patent publication US11547651B2, “Ecofriendly biofilm-disrupting antimicrobial formulations, their development, and their uses” (Alira Health Boston LLC, priority 2017, dated 2023).

The test system of data set [1] is oral care and wound care pathogens. Particulars: background statement, organism not given; cited from earlier work.
In data set [2] the test system is aquatic and terrestrial organisms. As to conditions: cited from earlier work.
Data set [3] concerns mice. Particulars: cited from earlier work.
Data set [4] deals with common oral care and wound care pathogens. Briefly: In vitro broad spectrum comparison against common oral care and wound care pathogens, silver as positive control. Format: cell-based. Particulars: for broad spectrum antimicrobial activity compared with silver: in vitro, common oral care and wound care pathogens. As for the experimental part: The MIC of the antimicrobials was from literature review as well as in vitro studies in our lab with the five major oral care and five major wound care pathogens. In the literature typically only one bacteria was tested, thus, it was difficult to ascertain whether the target was a broad spectrum antimicrobial. Oral care pathogens tested include: Fusobacterium nucleatum ss vincentii, Porphyromonas gingivalis, Prevotella intermedia, Aggregatibacter actinomycetemcomitans and Streptococcus mutans. Wound care pathogens included: Pseudomonas aeruginosa, Streptococcus pyogenes, Staphylococcus aureus, Enterococcus faecalis, and Proteus mirabilis. For the JMP® SAS analysis the antimicrobial scoring was based on the MIC in μg/ml using the following point scale: 5) 1-10 μg/ml, 4) 11-25 μg/ml, 3) 26-50 μg/ml, 2) 51-100 μg/ml, 1) >101, and ND for not determined.
In order to directly compare the top potential Ecofriendly antimicrobial candidates from the JMP SAS multivariate analysis described above, we examined how some of these compounds (aloesin, zinc pyrithione, cinnamon, lemongrass, manuka honey, peppermint, jojoba oil) performed against common oral care and wound care pathogens, using silver as a positive control. […] Zinc pyrithione is commonly used as an antibacterial and antifungal, is safe for human use, and is a common ingredient in dandruff shampoo.

The test system of data set [5] is aquatic and terrestrial organisms. Briefly: Eco-friendliness from ECOTOX database records. Particulars: point scale 5 to 1 from number of ECOTOX references. The text has this:
Eco-friendliness ratings were based on the number of references from the ECOTOX database. The scoring used the following point scale: 5) no toxicity to aquatic and terrestrial organisms, 4) 1-10 result records, 3) 11-25, 2) 26-50, 1) >51, and ND for not determined. Commonly used compounds such as Triclosan and silver were given an unacceptable Ecofriendly score of 1.

Setting [6] is: US EPA ecotoxicology database, aquatic environment.

Where two headings read alike, the source gives them in different places.

In the case of `Oc1cc(Cl)ccc1Oc1ccc(Cl)cc1Cl` [Triclosan, 5-Chloro-2-(2,4-dichlorophenoxy)phenol], the “microbial inhibitory concentration (MIC)” value in data set [1] was 125 µg/mL. Also, in data set [2] (setting [6]), the “number of records/references in the ECOTOX database” value (“number of records/references” for short) is recorded as 513. In data set [3], the LD50 is 1.5 mg/day.

As for `CC(=O)Cc1cc(=O)c2c(C)cc(O)c([C@@H]3O[C@H](CO)[C@@H](O)[C@H](O)[C@H]3O)c2o1` [aloesin], in data set [4], the “broad spectrum antimicrobial activity compared with silver” value is “inferior to silver”.

For the molecule silver, the “microbial inhibitory concentration (MIC)” value in data set [1] is 7.5 µg/mL. The “log reduction of most bacterial pathogens” value in data set [4] (planktonic bacterial and bacterial biofilms) amounted to 5 fold log reduction. In data set [2], the “number of records/references” value is 5,266.

Consider zinc pyrithione, for which, in data set [5], the “Ecofriendly (ecotoxicology) score” value is 1 (>51). Further, in data set [4], the “broad spectrum antimicrobial activity compared with silver” value was “better than silver”. Besides, the “number of records/references” value in data set [2] (setting [6]) is reported as 151.
